Here are results for 16 compounds from publication PMC3905599 (Chembiochem : a European journal of chemical biology, 2013).

One data set concerns the target P-glycoprotein (Homo sapiens, UniProt P08183). It is filed as binding. As to conditions: for inhibition at 20 μM / inhibition at 10 μM: human, pH 7.5.
For another data set, the target named is human P-gp (Homo sapiens, UniProt P08183). As to the kind of experiment: Calcein-AM efflux. It is filed as cell-based.
For data set [1] the following is noted: ongoing Phase III clinical trials; cited from earlier work.
Another data set has as its system P-gp. As to conditions: cited from earlier work.

Chain of P-glycoprotein (P08183 whole entry): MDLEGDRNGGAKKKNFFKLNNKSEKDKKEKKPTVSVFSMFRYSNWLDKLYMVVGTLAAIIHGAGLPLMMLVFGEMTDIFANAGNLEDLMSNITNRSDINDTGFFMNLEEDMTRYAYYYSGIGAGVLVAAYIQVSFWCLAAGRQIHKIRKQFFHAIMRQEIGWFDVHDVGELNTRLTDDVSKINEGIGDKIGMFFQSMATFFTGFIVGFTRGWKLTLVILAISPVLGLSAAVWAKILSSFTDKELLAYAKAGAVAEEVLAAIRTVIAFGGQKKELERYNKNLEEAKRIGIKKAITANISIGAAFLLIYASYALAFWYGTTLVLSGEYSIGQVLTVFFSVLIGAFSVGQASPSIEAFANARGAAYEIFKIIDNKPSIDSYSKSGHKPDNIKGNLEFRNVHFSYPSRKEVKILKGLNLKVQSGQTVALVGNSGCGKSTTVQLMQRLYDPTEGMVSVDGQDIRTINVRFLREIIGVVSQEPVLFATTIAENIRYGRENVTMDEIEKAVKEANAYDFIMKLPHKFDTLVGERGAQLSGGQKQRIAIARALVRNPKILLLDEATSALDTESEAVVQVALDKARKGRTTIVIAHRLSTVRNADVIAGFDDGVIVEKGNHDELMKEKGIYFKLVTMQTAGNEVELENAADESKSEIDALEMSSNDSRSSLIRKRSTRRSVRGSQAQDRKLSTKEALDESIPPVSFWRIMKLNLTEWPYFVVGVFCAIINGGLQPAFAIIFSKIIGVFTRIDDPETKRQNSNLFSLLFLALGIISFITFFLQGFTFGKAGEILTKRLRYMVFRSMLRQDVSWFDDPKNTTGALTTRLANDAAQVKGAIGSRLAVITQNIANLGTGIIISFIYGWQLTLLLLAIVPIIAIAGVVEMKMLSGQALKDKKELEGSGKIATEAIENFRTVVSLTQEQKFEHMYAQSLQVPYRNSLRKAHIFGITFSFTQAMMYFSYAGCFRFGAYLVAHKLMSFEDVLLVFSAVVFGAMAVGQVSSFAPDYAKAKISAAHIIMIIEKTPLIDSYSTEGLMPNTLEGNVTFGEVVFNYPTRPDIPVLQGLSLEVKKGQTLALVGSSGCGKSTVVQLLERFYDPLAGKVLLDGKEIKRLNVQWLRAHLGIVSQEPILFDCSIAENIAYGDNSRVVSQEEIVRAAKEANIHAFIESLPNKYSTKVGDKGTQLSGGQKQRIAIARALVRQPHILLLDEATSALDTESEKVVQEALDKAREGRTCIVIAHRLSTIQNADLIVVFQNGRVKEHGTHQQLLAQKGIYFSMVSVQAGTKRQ
Chain of human P-gp (P08183 whole entry): as above

On P-glycoprotein, `CC(C)[C@H](N)c1nc(C(=O)N[C@H](c2nc(C(=O)O)cs2)C(C)C)cs1` [Compound 12, (S)-2-(1-{[2-(1-Amino-2-methylpropyl)thiazole-4-carbonyl]amino}-(S)-2-methylpropyl)thiazole-4-carboxylic acid] registered an inhibition at 20 μM of 23%. For `CCOC(=O)c1csc([C@@H](NC(=O)c2csc([C@@H](NC(=O)c3csc([C@@H](NC(=O)c4csc([C@@H](NC(=O)OC(C)(C)C)C(C)C)n4)C(C)C)n3)C(C)C)n2)C(C)C)n1` [Compound 18, (S)-2-(1-{[2-(1-{[2-(1-{[2-(1-tert-Butoxycarbonylamino-2-methylpropyl)thiazole-4-carbonyl]amino}-(S)-2-methylpropyl)thiazole-4-carbonyl]amino}-(S)-2-methylpropyl)thiazole-4-carbonyl]amino}-(S)-2-methylpropyl)thiazole-4-carboxylic acid ethyl ester], on human P-gp (10 μM, transport assays), the “Decrease of cell based inhibitory activity as compared to homolog 13” value was 1.6 fold. Further, on P-glycoprotein, the inhibition at 10 μM is 99%. For `CC(C)[C@@H]1NC(=O)c2csc(n2)[C@H](C(C)C)NC(=O)c2csc(n2)[C@H](C(C)C)NC(=O)c2csc(n2)[C@H](C(C)C)NC(=O)c2csc1n2` [Compound 20, Cyclic Tetramer], the “[125I]-IAAP % Inhibition” value on P-glycoprotein (tested conc. 10 μM, 4-6 nM [125I]-IAAP, High-Five insect cell membranes) was found to be 95%. For the compound `CC(C)[C@H](NC(=O)OC(C)(C)C)c1nc(C(=O)O)cs1` [Compound 6, (S)-2-(1-tert-Butoxycarbonylamino-2-methylpropyl)thiazole-4-carboxylic acid], the inhibition at 20 μM at P-glycoprotein was under 10%. `CC(C)[C@H](N)c1nc(C(=O)O)cs1` [Compound 8, (S)-2-(1-Amino-2-methylpropyl)thiazole-4-carboxylic acid] yielded an inhibition at 20 μM on P-glycoprotein of under 10%. Turning to `CCOC(=O)c1csc([C@@H](NC(=O)c2csc([C@@H](NC(=O)OC(C)(C)C)C(C)C)n2)C(C)C)n1` [Compound 9, (S)-2-(1-{[2-(1-tert-Butoxycarbonylamino-2-methylpropyl)thiazole-4-carbonyl]amino}-(S)-2-methylpropyl)thiazole-4-carboxylic acid ethyl ester], the IC50 on human P-gp was 20 µM. The compound also returned an inhibition at 20 μM against P-glycoprotein of 87%. For `CCOC(=O)c1csc([C@@H](N)C(C)C)n1` [Compound 7, (S)-2-(1-Amino-2-methylpropyl)thiazole-4-carboxylic acid ethyl ester], on P-glycoprotein, the inhibition at 20 μM is under 10%. Still for that read-out and setting: in the case of `CC(C)[C@H](NC(=O)OC(C)(C)C)c1nc(C(=O)N[C@H](c2nc(C(=O)O)cs2)C(C)C)cs1` [Compound 10, (S)-2-(1-{[2-(1-tert-Butoxycarbonylamino-2-methylpropyl)thiazole-4-carbonyl]amino}-(S)-2-methylpropyl)thiazole-4-carboxylic acid] it was under 10%; in that of `CCOC(=O)c1csc([C@@H](NC(=O)OC(C)(C)C)C(C)C)n1` [Compound 5, (S)-2-(1-tert-Butoxycarbonylamino-2-methylpropyl)thiazole-4-carboxylic acid ethyl ester], 20%. Take `COc1ccc(CNC(=O)c2csc([C@@H](NC(=O)c3csc([C@@H](NC(=O)OC(C)(C)C)C(C)C)n3)C(C)C)n2)c(OC)c1` [Compound 23, [1-(4-{1-[4-(2,4-Dimethoxybenzylcarbamoyl)thiazol-2-yl]-(S)-2-methylpropylcarbamoyl}thiazol-2-yl)-(S)-2-methylpropyl]carbamic acid tert-butyl ester]: the inhibition at 10 μM at P-glycoprotein was found to be 95%.

With `C/C=C/C[C@@H](C)C(=O)[C@H]1C(=O)N[C@@H](C(C)C)C(=O)N(C)CC(=O)N(C)[C@@H](CC(C)C)C(=O)N[C@@H](C(C)C)C(=O)N(C)[C@@H](CC(C)C)C(=O)N[C@@H](C)C(=O)N[C@H](C)C(=O)N(C)[C@@H](CC(C)C)C(=O)N(C)[C@@H](CC(C)C)C(=O)N(C)[C@@H](C(C)C)C(=O)N1C` [valspodar], the Oral bioavailability result in data set [1] is listed as “very restricted oral bioavailability”.

`CCOC(=O)c1csc([C@@H](NC(=O)c2csc([C@@H](NC(=O)c3csc([C@@H](NC(=O)OC(C)(C)C)C(C)C)n3)C(C)C)n2)C(C)C)n1` [Compound 13, (S)-2-(1-{[2-(1-{[2-(1-tert-Butoxycarbonylamino-2-methylpropyl)thiazole-4-carbonyl]amino}-(S)-2-methylpropyl)thiazole-4-carbonyl]amino}-(S)-2-methylpropyl) thiazole-4-carboxylic acid ethyl ester]: on P-glycoprotein, the inhibition at 10 μM was determined as 91%. On the same count and under the same terms, for `CC(C)[C@H](NC(=O)OC(C)(C)C)c1nc(C(=O)N[C@H](c2nc(C(=O)N[C@H](c3nc(C(=O)O)cs3)C(C)C)cs2)C(C)C)cs1` [Compound 14, (S)-2-(1-{[2-(1-{[2-(1-tert-Butoxycarbonylamino-2-methylpropyl)thiazole-4-carbonyl]amino}-(S)-2-methylpropyl)thiazole-4-carbonyl]amino}-(S)-2-methylpropyl)thiazole-4-carboxylic acid] the value was 60%.

Take `CCOC(=O)c1csc([C@@H](NC(=O)c2csc([C@@H](NC(=O)c3csc([C@@H](N)C(C)C)n3)C(C)C)n2)C(C)C)n1` [Compound 15, (S)-2-(1-{[2-(1-{[2-(1-Amino-2-methylpropyl)thiazole-4-carbonyl]amino}-(S)-2-methylpropyl)thiazole-4-carbonyl]amino}-(S)-2-methylpropyl)thiazole-4-carboxylic acid ethyl ester]: at P-glycoprotein, the inhibition at 10 μM was 91%.

With `CC(C)[C@@H]1NC(=O)c2c[se]c(n2)[C@H](C(C)C)NC(=O)c2c[se]c(n2)[C@H](C(C)C)NC(=O)c2c[se]c1n2` [QZ59Se-SSS], the “Potency relative to corresponding QZ59Se-RRR isomer” value in the data set on P-gp is given as “four-fold potent”. On P-glycoprotein, `CCOC(=O)c1csc([C@@H](NC(=O)c2csc([C@@H](N)C(C)C)n2)C(C)C)n1` [Compound 11, (S)-2-(1-{[2-(1-Amino-2-methylpropyl)thiazole-4-carbonyl]amino}-(S)-2-methylpropyl)thiazole-4-carboxylic acid ethyl ester] showed an inhibition at 20 μM of 87%.
